The test deals with T1, AR protein in VCaP cells (Homo sapiens, UniProt P10275).
T1 construct: endogenous in cells; host or cells: VCaP cells
T1 sequence (P10275 1-920): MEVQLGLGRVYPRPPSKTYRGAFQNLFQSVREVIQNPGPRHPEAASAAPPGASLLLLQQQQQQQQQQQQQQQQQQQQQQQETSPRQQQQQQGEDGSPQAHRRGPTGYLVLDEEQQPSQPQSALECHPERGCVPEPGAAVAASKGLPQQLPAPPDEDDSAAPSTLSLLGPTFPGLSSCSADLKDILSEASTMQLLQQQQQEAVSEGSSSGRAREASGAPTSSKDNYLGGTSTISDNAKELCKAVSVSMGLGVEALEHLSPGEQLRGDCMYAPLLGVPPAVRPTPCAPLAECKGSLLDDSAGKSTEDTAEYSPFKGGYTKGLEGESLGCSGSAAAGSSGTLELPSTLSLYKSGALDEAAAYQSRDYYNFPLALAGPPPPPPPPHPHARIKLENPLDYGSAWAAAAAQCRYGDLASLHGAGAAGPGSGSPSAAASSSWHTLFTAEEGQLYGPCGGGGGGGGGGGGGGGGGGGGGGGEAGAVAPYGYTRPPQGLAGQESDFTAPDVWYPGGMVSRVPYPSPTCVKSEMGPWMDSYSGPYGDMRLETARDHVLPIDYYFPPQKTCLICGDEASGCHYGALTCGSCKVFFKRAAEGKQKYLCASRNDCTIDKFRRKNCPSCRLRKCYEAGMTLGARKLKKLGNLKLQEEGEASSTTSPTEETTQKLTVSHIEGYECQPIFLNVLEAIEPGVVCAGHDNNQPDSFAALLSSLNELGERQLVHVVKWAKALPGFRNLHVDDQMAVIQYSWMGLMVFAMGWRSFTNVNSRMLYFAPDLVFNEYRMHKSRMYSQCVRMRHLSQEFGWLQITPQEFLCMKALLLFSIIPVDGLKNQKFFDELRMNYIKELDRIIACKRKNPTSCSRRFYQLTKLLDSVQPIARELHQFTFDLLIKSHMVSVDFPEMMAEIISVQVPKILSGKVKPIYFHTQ
As to the kind of experiment: VCAP AR Degradation Assay (AR ELISA, 24 h). The test is classed as cell-based. The conditions noted are these: for Y (lowest measured AR level normalized to DMSO control): AR degradation efficiency; for DC50: concentration of compound when AR level = 50% of DMSO control. The protocol: VCAP AR Degradation Assay.
Test compounds were pre-dispensed into a Corning CellBind 96-well clear bottom plate (Cat #3300) using an acoustic dispenser to make a 10-point concentration series at 1:3 dilution for each compound. The final top concentration of each compound was […]. DMSO at a final concentration of 0.1% was used as a control. VCaP cells cultured in DMEM with 8% fetal bovine serum (FBS) were seeded at 50K cells per well in a 200 μL volume into the compound plate and incubated at 37° C. in a CO2 incubator for 24 h. The medium was carefully removed from the cells and the plate was placed on ice. One hundred […] of ice-cold 1× cell lysis buffer from Cell Signaling Technologies (Cat #9803) was added to each well of the cells and the plate was incubated at 4° C. on a shaker for 1 h. Fifteen […] of cell lysate was used for AR ELISA detection using a PathScan Total Sandwich AR ELISA kit (Cell Signaling Technology, Cat #12580). AR levels in compound-treated wells were normalized to that of DMSO control and expressed as percent of control (PoC) (y). A Four Parameter Logistic Model (Sigmoidal Dose-Response Model) was used to determine the compound's DC50, and EC50, using the following equation: y=(A+((B−A)/(1+((C/x)^D)))) • A=YMin (lowest AR level normalized to DMSO control in response to compound • treatment, as determined by curve fit) • B=YMax (maximum AR level as determined by curve fit) • C=EC50 • D=Hill Slope • x=compound concentration • EC50=the concentration of compound when y=(YMax−YMin)/2 • DC50=the concentration of the compound when y=50% of DMSO control (50% AR degradation) • y=AR protein level normalized to DMSO control
The lowest measured AR level normalized to DMSO control in response to compound treatment, termed Y value, was used to characterize the compound-mediated AR degradation efficiency.
A general note: An ELISA detects its analyte on a solid surface through an enzyme-linked reagent.

Each structure is given as a SMILES string. Like-named read-outs stand apart in the source and are kept apart here.

One may read the DC50 as the concentration giving 50% degradation. For the compound `CCc1cc(N2C(=S)N(c3cnc(C#N)c(C(F)(F)F)c3)C(=O)C2(C)C)ccc1OCC[C@@H]1CCN(CC(=O)Nc2cc(NC3CCC(=O)NC3=O)ccc2F)[C@H](C)C1` (stereo partly drawn) [Cmpd 79, 2-((2R,4R)-4-(2-(4-(3-(6-cyano-5-(trifluoromethyl)pyridin-3-yl)-5,5-dimethyl-4-oxo-2-thioxoimidazolidin-1-yl)-2-ethylphenoxy)ethyl)-2-methylpiperidin-1-yl)-N-(5-(2,6-dioxopiperidin-3-ylamino)-2-fluorophenyl)acetamide], the “Y (lowest measured AR level normalized to DMSO control)” value is on record as “** (25%<Y<=35%)”. Moreover, the 50% degradation concentration (DC50) (read-out: DC50) was in the range of 100 to 500 nM.
Taken in the same sequence, the figures for `CCc1cc(N2C(=S)N(c3ccc(C#N)c(C(F)(F)F)c3)C(=O)C2(C)C)ccc1OCCC1CCN(CC(=O)Nc2cccc(NC3CCC(=O)NC3=O)c2)CC1` (centres unmarked) [Cmpd 17, 2-(4-(2-(4-(3-(4-cyano-3-(trifluoromethyl)phenyl)-5,5-dimethyl-4-oxo-2-thioxoimidazolidin-1-yl)-2-ethylphenoxy)ethyl)piperidin-1-yl)-N-(3-(2,6-dioxopiperidin-3-ylamino)phenyl)acetamide] were “* (0<Y<=25%)” and under 100 nM.
Taken in the same sequence, the figures for `CCc1cc(N2C(=S)N(c3ccc(C#N)c(C(F)(F)F)c3)C(=O)C23CCC3)ccc1OCCC1CCN([C@H](C)C(=O)Nc2cc(NC3CCC(=O)NC3=O)ccc2F)CC1` (stereo partly drawn) [Cmpd 75, (2R)-2-(4-(2-(4-(7-(4-cyano-3-(trifluoromethyl)phenyl)-8-oxo-6-thioxo-5,7-diazaspiro[3.4]octan-5-yl)-2-ethylphenoxy)ethyl)piperidin-1-yl)-N-(5-(2,6-dioxopiperidin-3-ylamino)-2-fluorophenyl)propanamide] were “** (25%<Y<=35%)” and 100 to 500 nM.
As to `CCc1cc(N2C(=S)N(c3ccc(C#N)c(C(F)(F)F)c3)C(=O)C2(C)C)ccc1OCCC1CCN(CC(=O)Nc2cc(NC3CCC(=O)NC3=O)ccc2F)CC1` (centres unmarked) [Cmpd 18, 2-(4-(2-(4-(3-(4-cyano-3-(trifluoromethyl)phenyl)-5,5-dimethyl-4-oxo-2-thioxoimidazolidin-1-yl)-2-ethylphenoxy)ethyl)piperidin-1-yl)-N-(5-(2,6-dioxopiperidin-3-ylamino)-2-fluorophenyl)acetamide], the “Y (lowest measured AR level normalized to DMSO control)” value is on record as “* (0<Y<=25%)”. Besides, for the setting “read-out: DC50”, the DC50 is 100 to 500 nM.
Take `CC1(C)C(=O)N(c2cnc(C#N)c(C(F)(F)F)c2)C(=S)N1c1ccc(OCC2CCN(CC(=O)Nc3cccc(NC4CCC(=O)NC4=O)c3)CC2)c(Cl)c1` (centres unmarked) [Cmpd 7, 2-(4-((2-chloro-4-(3-(6-cyano-5-(trifluoromethyl)pyridin-3-yl)-5,5-dimethyl-4-oxo-2-thioxoimidazolidin-1-yl)phenoxy)methyl)piperidin-1-yl)-N-(3-(2,6-dioxopiperidin-3-ylamino)phenyl)acetamide]: the “Y (lowest measured AR level normalized to DMSO control)” value was “** (25%<Y<=35%)”. For the same compound, the DC50 (read-out: DC50) was in the range of 500 to 1000 nM.
Taken in the same sequence, the figures for `CCc1cc(N2C(=S)N(c3cnc(C#N)c(C(F)(F)F)c3)C(=O)C2(C)C)ccc1OCC[C@H]1CCN(CC(=O)Nc2cccc(NC3CCC(=O)NC3=O)c2)[C@H](C)C1` (stereo partly drawn) [Cmpd 76, 2-((2R,4S)-4-(2-(4-(3-(6-cyano-5-(trifluoromethyl)pyridin-3-yl)-5,5-dimethyl-4-oxo-2-thioxoimidazolidin-1-yl)-2-ethylphenoxy)ethyl)-2-methylpiperidin-1-yl)-N-(3-(2,6-dioxopiperidin-3-ylamino)phenyl)acetamide] were “* (0<Y<=25%)” and under 100 nM.
Taken in the same sequence, the figures for `CCc1cc(N2C(=S)N(c3cnc(C#N)c(C(F)(F)F)c3)C(=O)C2(C)C)ccc1OC1CCN(CC(=O)Nc2cccc(NC3CCC(=O)NC3=O)c2)CC1` (centres unmarked) [Cmpd 53, 2-(4-(4-(3-(6-cyano-5-(trifluoromethyl)pyridin-3-yl)-5,5-dimethyl-4-oxo-2-thioxoimidazolidin-1-yl)-2-ethylphenoxy)piperidin-1-yl)-N-(3-(2,6-dioxopiperidin-3-ylamino)phenyl)acetamide] were “** (25%<Y<=35%)” and under 100 nM.
Taken in the same sequence, the figures for `CC1(C)C(=O)N(c2ccc(C#N)c(C(F)(F)F)c2)C(=S)N1c1ccc(OCCC2CCN(CC(=O)Nc3cccc(NC4CCC(=O)NC4=O)c3)CC2)c(Cl)c1` (centres unmarked) [Cmpd 4, 2-(4-(2-(2-chloro-4-(3-(4-cyano-3-(trifluoromethyl)phenyl)-5,5-dimethyl-4-oxo-2-thioxoimidazolidin-1-yl)phenoxy)ethyl)piperidin-1-yl)-N-(3-(2,6-dioxopiperidin-3-ylamino)phenyl)acetamide] were “** (25%<Y<=35%)” and 100 to 500 nM.
As for `CCc1cc(N2C(=S)N(c3cnc(C#N)c(C(F)(F)F)c3)C(=O)C2(C)C)ccc1OCC[C@@H]1CCN(CC(=O)Nc2cccc(NC3CCC(=O)NC3=O)c2)[C@H](C)C1` (stereo partly drawn) [Cmpd 78, 2-((2R,4R)-4-(2-(4-(3-(6-cyano-5-(trifluoromethyl)pyridin-3-yl)-5,5-dimethyl-4-oxo-2-thioxoimidazolidin-1-yl)-2-ethylphenoxy)ethyl)-2-methylpiperidin-1-yl)-N-(3-(2,6-dioxopiperidin-3-ylamino)phenyl)acetamide], the “Y (lowest measured AR level normalized to DMSO control)” value is “* (0<Y<=25%)”. For the same compound, the DC50 (read-out: DC50) is under 100 nM.
For `CCc1cc(N2C(=S)N(c3cnc(C#N)c(C(F)(F)F)c3)C(=O)C23CCC3)ccc1OCC[C@@H]1C[C@H]2CC[C@@H](C1)N2CC(=O)Nc1cccc(NC2CCC(=O)NC2=O)c1` (stereo partly drawn) [Cmpd 68, 2-((1R,3s,5S)-3-(2-(4-(7-(6-cyano-5-(trifluoromethyl)pyridin-3-yl)-8-oxo-6-thioxo-5,7-diazaspiro[3.4]octan-5-yl)-2-ethylphenoxy)ethyl)-8-azabicyclo[3.2.1]octan-8-yl)-N-(3-(2,6-dioxopiperidin-3-ylamino)phenyl)acetamide], the “Y (lowest measured AR level normalized to DMSO control)” value is reported as “* (0<Y<=25%)” and the DC50 was under 100 nM.
Regarding `CCc1cc(N2C(=S)N(c3cnc(C#N)c(C(F)(F)F)c3)C(=O)C2(C)C)ccc1OC1CCN(CC(=O)Nc2cc(NC3CCC(=O)NC3=O)ccc2F)CC1` (centres unmarked) [Cmpd 52, 2-(4-(4-(3-(6-cyano-5-(trifluoromethyl)pyridin-3-yl)-5,5-dimethyl-4-oxo-2-thioxoimidazolidin-1-yl)-2-ethylphenoxy)piperidin-1-yl)-N-(5-(2,6-dioxopiperidin-3-ylamino)-2-fluorophenyl)acetamide], the “Y (lowest measured AR level normalized to DMSO control)” value was “*** (35%<Y<50%)”. Besides, the 50% degradation concentration (DC50) (read-out: DC50) lay in the range of 100 to 500 nM.
The matching figures for `CCc1cc(N2C(=S)N(c3cnc(C#N)c(C(F)(F)F)c3)C(=O)C23CCC3)ccc1OCCC1CCN(CC(=O)Nc2cccc(NC3CCC(=O)NC3=O)c2)C(C)(C)C1` (single isomer, unassigned) [Cmpd 54]: “* (0<Y<=25%)” and under 100 nM.
The matching figures for `CC(C)c1cc(N2C(=S)N(c3ccc(C#N)c(C(F)(F)F)c3)C(=O)C2(C)C)ccc1OCC[C@@H]1CCN(CC(=O)Nc2cccc(NC3CCC(=O)NC3=O)c2)[C@H](C)C1` (stereo partly drawn) [Cmpd 91, 2-((2R,4R)-4-(2-(4-(3-(4-cyano-3-(trifluoromethyl)phenyl)-5,5-dimethyl-4-oxo-2-thioxoimidazolidin-1-yl)-2-isopropylphenoxy)ethyl)-2-methylpiperidin-1-yl)-N-(3-(2,6-dioxopiperidin-3-ylamino)phenyl)acetamide]: “** (25%<Y<=35%)” and 500 to 1000 nM.

Source of the values: patent publication US11325889B2, “Substituted 3-((3-aminophenyl)amino)piperidine-2,6-dione compounds, compositions thereof, and methods of treatment therewith” (Celgene Corporation, priority 2018, dated 2022).
